Like-named read-outs stand apart in the source and are kept apart here.
Legend:
[1] = tested on: human breast cancer cell line SKBR3; experiment: Test 1 of anti-proliferative activity against tumor cells (Cell-Titer Glo); format: cell-based
Summary of the method: (§1)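 HCT116, SKBR3 and OVCAR3 cells seeded 24 h, then treated with 9-point 3-fold dilutions (final 0-300 nM); HCT116 incubated 3 days, SKBR3 and OVCAR3 5 days at 37° C, 5% CO2. Viability by Cell-Titer Glo luminescence, inhibition normalised to DMSO and no-cell wells, IC50 fitted.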

[2] = tested on: Human colorectal cancer cell line HCT116; experiment: as above; format: cell-based
Summary of the method: as §1

[3] = tested on: human ovarian cancer cell line OVCAR3; experiment: as above; format: cell-based
Summary of the method: as §1

[4] = Plasma protein binding rate (equilibrium dialysis); format: in vitro ADME, mouse; settings: pH 7.4
Experimental: The protein binding rates of the compounds of the present disclosure in human and mouse plasma were determined by the following experimental method.
• 1. Human plasma (BioIVT), CD-1 mouse plasma (BiolVT) • 2. Na2HPO4 (Sigma S5136-500G) • 3. NaH2PO4 (Sigma 53139-500G) • 4. NaCl (Sigma S5886-IKG) • 5. 96-well equilibrium dialysis plate (HTDialysis LLC, Gales Ferry, CT, HTD96B) and equilibrium dialysis membrane (MWCO 12-14K, 1101) • 6. Positive control compound warfarin • 7. ABI QTrap 5500 liquid chromatography-mass spectrometry
• 1. Preparation of a buffer with a concentration of 100 mM sodium phosphate and 150 mM NaCl: An alkaline solution with a concentration of 14.2 g/L Na2HPO4 and 8.77 g/L NaCl was prepared with ultrapure water, and an acidic solution with a concentration of 12.0 g/L NaH2PO4 and 8.77 g/L NaCl was prepared with ultrapure water. Then the alkaline solution was titrated to pH 7.4 with the acidic solution to prepare a buffer with a concentration of 100 mM sodium phosphate and 150 mM NaCl. • 2. Preparation of dialysis membrane: The dialysis membrane was soaked in ultrapure water for 60 min to separate the membrane into two pieces, then soaked in 20% ethanol for 20 min, and finally soaked in a buffer used for dialysis for 20 min. • 3. Preparation of plasma: The frozen plasma was quickly thawed at room temperature, and then centrifuged at 3220 g for 10 min at 4° C. to remove clots, and the supernatant was collected into a new centrifugal tube. The pH of the plasma was determined and recorded, and the plasma with pH of 7-8 was used. • 4. Preparation of compound-containing plasma samples: The 10 mM stock solution of the compound of the present invention or the positive control compound was diluted with DMSO to obtain a 200 μM working solution. To 597 μl of human or mouse plasma was added 3 μl of 200 μM compound working solution to obtain a plasma sample with a final concentration of 1 μM. • 5. […]
The peak areas of the compound on the buffer side and the plasma side were determined. […]

[5] = Homo sapiens, SK-BR-3, 120 h, read-out: SKBR3 Anti-proliferative activity IC50 (nM), SKBR3 cells, cultured 5 days with compound, Cell-Titer Glo
[6] = Homo sapiens, HCT-116, 72 h, read-out: HCT116 Anti-proliferative activity IC50 (nM), HCT116 cells, cultured 3 days with compound, Cell-Titer Glo
[7] = Homo sapiens, OVCAR-3, 120 h, OVCAR3 cells, cultured 5 days with compound, Cell-Titer Glo, read-out: OVCAR3 Anti-proliferative activity IC50
[8] = CD-1 mouse plasma, 1 μM, equilibrium dialysis 6 h, 37° C., read-out: % Mouse plasma protein binding rate (converted)
[9] = Homo sapiens, SK-BR-3, 120 h, SKBR3 cells, cultured 5 days with compound, Cell-Titer Glo, read-out: SKBR3 Anti-proliferative activity IC50
[10] = Homo sapiens, HCT-116, 72 h, HCT116 cells, cultured 3 days with compound, Cell-Titer Glo, read-out: HCT116 Anti-proliferative activity IC50

Structure (SMILES)	IC50 [1, 5]	IC50 [2, 6]	IC50 [3, 7]	fraction unbound at 6 h, 1 μM [4, 8]	IC50 [1, 9]	IC50 [2, 10]	further results
CC[C@@]1(O)C(=O)OCc2c1cc1n(c2=O)Cc2c-1nc1cc3c(cc1c2CNC(=O)C(O)C1CC1)OCO3 (single isomer, unassigned) [Compound 14-P1]	2.1 nM	9.8 nM	0.6 nM	0.363			
CC[C@@]1(O)C(=O)OCc2c1cc1n(c2=O)Cc2c-1nc1cc3c(cc1c2CNC(=O)C(O)C1CC1)OCO3 (single isomer, unassigned) [Compound 14-P2]							IC50 ([1]; read-out: SKBR3 Anti-proliferative activity IC50, SKBR3 cells, cultured 5 days with compound, Cell-Titer Glo): 3.5 nM; IC50 ([2]; read-out: HCT116 Anti-proliferative activity IC50, HCT116 cells, cultured 3 days with compound, Cell-Titer Glo): 12.4 nM; IC50 ([3]; OVCAR3 cells, cultured 5 days with compound, Cell-Titer Glo, read-out: OVCAR3 Anti-proliferative activity IC50): 1 nM
CC[C@@]1(O)C(=O)OCc2c1cc1n(c2=O)Cc2c-1nc1cc3c(c(F)c1c2CNC(=O)[C@@H](O)C1CC1)OCO3 (single isomer, unassigned) [Compound 37-P1]			0.5 nM		2.1 nM	4.8 nM	fraction unbound at 6 h, 1 μM ([4]; CD-1, mouse, plasma): 0.327
CC[C@@]1(O)C(=O)OCc2c1cc1n(c2=O)Cc2c-1nc1cc3c(cc1c2CNC(=O)C(O)C1CC1)OCO3 (stereo partly drawn) [Compound 14, 2-cyclopropyl-N-(((S)-7-ethyl-7-hydroxy-8,11-dioxo-7,8,11,13-tetrahydro-10H-[1,3]dioxolo[4,5-g]pyrano[3′,4′:6,7]indolizino[1,2-b]quinolin-14-yl)methyl)-2-hydroxyacetamide]	2.2 nM	8.4 nM					IC50 ([3]; Homo sapiens, OVCAR-3, 120 h, read-out: OVCAR3 Anti-proliferative activity IC50 (nM)): 0.9 nM
[2H]C1([2H])Oc2cc3nc4c(c(CNC(=O)C(O)C5CC5)c3cc2O1)Cn1c-4cc2c(c1=O)COC(=O)[C@]2(O)CC (stereo partly drawn) [Compound 39, 2-cyclopropyl-N-(((S)-7-ethyl-7-hydroxy-8,11-dioxo-7,8,11,13-tetrahydro-10H-[1,3]dioxolo[4,5-g]pyrano[3′,4′:6,7]indolizino[1,2-b]quinolin-14-yl-2,2-d2)methyl)-2-hydroxyacetamide]			1 nM	0.342	2.9 nM	9.5 nM	

Reference: patent publication US20250270227A1, “CAMPTOTHECIN DERIVATIVE, AND PHARMACEUTICAL COMPOSITION AND USE THEREOF” (SIMCERE ZAIMING PHARMACEUTICAL CO., LTD., priority 2021, published 2025)
